Laboratory results: ChEMBL document CHEMBL1125693, “Synthesis and biological activity of new halo-steroidal antiestrogens” (J Med Chem, 1991)

What was measured:
[1] = target: T1, Estrogen receptor (Mus musculus) (UniProt O08537+P19785); assay: Inhibition of estradiol-induced uterine weight gain in ovariectomized BALB/c mice at 20 ug dose twice daily; format: functional
[2] = target: T1, Estrogen receptor (Mus musculus); assay: Inhibition of estradiol-induced uterine weight gain in ovariectomized BALB/c mice at 3 ug dose twice daily; format: functional

T1 sequence (O08537 whole entry, looked up): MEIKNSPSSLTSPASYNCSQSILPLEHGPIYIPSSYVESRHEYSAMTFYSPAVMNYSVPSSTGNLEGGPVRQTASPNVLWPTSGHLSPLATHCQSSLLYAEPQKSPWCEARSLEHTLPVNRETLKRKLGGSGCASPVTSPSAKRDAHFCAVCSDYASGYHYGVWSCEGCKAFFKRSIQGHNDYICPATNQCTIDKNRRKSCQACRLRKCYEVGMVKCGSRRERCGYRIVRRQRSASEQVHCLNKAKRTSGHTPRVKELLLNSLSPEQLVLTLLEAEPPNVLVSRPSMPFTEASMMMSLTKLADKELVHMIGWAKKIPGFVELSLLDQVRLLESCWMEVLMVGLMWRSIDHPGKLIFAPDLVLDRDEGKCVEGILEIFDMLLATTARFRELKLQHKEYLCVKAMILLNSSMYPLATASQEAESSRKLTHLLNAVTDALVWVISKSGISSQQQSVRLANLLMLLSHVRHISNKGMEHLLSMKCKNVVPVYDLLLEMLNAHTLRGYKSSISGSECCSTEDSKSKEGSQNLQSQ
T1 sequence (P19785 whole entry, looked up): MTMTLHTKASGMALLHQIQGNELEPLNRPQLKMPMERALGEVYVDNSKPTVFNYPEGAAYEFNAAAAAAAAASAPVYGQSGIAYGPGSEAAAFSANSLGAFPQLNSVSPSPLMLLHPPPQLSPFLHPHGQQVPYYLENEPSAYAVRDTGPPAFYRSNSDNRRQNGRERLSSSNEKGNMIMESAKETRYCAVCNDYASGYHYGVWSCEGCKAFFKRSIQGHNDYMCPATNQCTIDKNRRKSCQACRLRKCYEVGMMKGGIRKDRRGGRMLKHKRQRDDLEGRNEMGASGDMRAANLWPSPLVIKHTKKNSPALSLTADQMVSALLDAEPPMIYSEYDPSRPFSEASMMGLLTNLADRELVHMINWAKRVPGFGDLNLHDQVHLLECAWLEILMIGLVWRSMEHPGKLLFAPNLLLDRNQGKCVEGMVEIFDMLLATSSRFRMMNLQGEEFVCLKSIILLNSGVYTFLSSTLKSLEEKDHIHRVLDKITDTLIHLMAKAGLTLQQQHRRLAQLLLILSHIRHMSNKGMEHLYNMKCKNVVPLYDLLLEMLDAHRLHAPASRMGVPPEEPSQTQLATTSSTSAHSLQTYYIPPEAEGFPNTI

Row | SMILES | inhibition [1] [%] | inhibition [2] [%]
1 | CCCCN(C)C(=O)CCCCCCCCCC[C@@H]1Cc2cc(O)ccc2[C@H]2CC[C@]3(C)[C@@H](O)[C@H](Br)C[C@H]3[C@H]12 | 79 | 52
2 | CCCCN(C)C(=O)CCCCCCCCCC[C@@H]1Cc2cc(O)ccc2[C@H]2CC[C@]3(C)[C@H](O)[C@H](Br)C[C@H]3[C@H]12 | 78 | 60
3 | CCCCN(C)C(=O)CCCCCCCCCC[C@@H]1Cc2cc(O)ccc2[C@H]2CC[C@]3(C)[C@@H](O)[C@H](Cl)C[C@H]3[C@H]12 | – | 74
4 | CCCCN(C)C(=O)CCCCCCCCCC[C@@H]1Cc2cc(O)ccc2[C@H]2CC[C@]3(C)[C@H](O)[C@H](Cl)C[C@H]3[C@H]12 | – | 35
5 | CCCCN(C)C(=O)CCCCCCCCCC[C@@H]1Cc2cc(O)ccc2[C@H]2CC[C@]3(C)[C@@H](O)[C@H](I)C[C@H]3[C@H]12 | – | 63
6 | CCCCN(C)C(=O)CCCCCCCCCC[C@@H]1Cc2cc(O)ccc2[C@H]2CC[C@]3(C)[C@@H](O)CC[C@H]3[C@H]12 | – | 40
